Experimental data taken from article PMC6338552 (Biochemistry, 2018).

Biological target: JNK1/TMR-JIPtide (Homo sapiens, UniProt P45983)
Format: binding
Details: relative to apo-JNK1

JNK1/TMR-JIPtide, sequence (P45983 1-384 isoform P45983-2, species assumed): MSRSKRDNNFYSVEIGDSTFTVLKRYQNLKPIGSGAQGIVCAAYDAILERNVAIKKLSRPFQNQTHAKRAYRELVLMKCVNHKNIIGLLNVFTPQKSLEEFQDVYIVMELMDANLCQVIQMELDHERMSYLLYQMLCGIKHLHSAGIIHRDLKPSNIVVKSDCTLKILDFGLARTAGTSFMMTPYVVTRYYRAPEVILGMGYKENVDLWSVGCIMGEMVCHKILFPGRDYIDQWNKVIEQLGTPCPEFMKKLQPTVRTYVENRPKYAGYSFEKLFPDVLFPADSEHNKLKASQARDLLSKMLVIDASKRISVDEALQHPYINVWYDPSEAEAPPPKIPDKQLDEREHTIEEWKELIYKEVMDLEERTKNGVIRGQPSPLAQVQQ

In the case of `Nc1ncnc2c1ncn2[C@@H]1O[C@H](COP(=O)(O)OP(=O)(O)OP(=O)(O)O)[C@@H](O)[C@H]1O` [ATP, adenosine triphosphate], the “effect of ATP-binding site ligand on JNK1 affinity for JIPtide (in words)” value is reported as “two-fold more tightly”.
